According to PubChem BioAssay AID1919003 (Molecular Pharmacology Branch, DTP, NCI, 2023):

System: 786-0 complex spheroids with HUVEC/MSC, growth % test/control
Assay: Anticancer human tumor 786-0 cell line growth inhibition [AhR];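 also: compound exposure lasted seven days before the read-out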
Details: for IC50: curve of first compound; for viability, T/C: stronger effect = lower value
Outline: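 Agents were dosed in half-log steps down from roughly clinical Cmax, or from 10 microM where Cmax was unknown, alone and with AhR antagonists. Read-out: percent test/control growth of tumor spheroids containing HUVEC and MSC stromal cells.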

[1] = second compound 0.1 µM, first compound 0.0316 µM
[2] = second compound 0.1 µM, first compound 0.1 µM
[3] = second compound 0.1 µM, first compound 0.316 µM
[4] = second compound 0.1 µM, first compound 1 µM
[5] = second compound 0.316 µM, first compound 0.0316 µM
[6] = second compound 0.316 µM, first compound 0.1 µM
[7] = second compound 0.316 µM, first compound 0.316 µM
[8] = second compound 0.316 µM, first compound 1 µM
[9] = second compound 1 µM, first compound 0.0316 µM
[10] = second compound 1 µM, first compound 0.1 µM
[11] = second compound 1 µM, first compound 0.316 µM
[12] = second compound 1 µM, first compound 1 µM
[13] = second compound 3.16 µM, first compound 0.0316 µM
[14] = second compound 3.16 µM, first compound 0.1 µM
[15] = second compound 3.16 µM, first compound 0.316 µM
[16] = second compound 3.16 µM, first compound 1 µM
[17] = second compound 10 µM, first compound 0.0316 µM
[18] = second compound 10 µM, first compound 0.1 µM
[19] = second compound 10 µM, first compound 0.316 µM
[20] = second compound 10 µM, first compound 1 µM
[21] = second compound 0.1 µM, first compound 0.00316 µM
[22] = second compound 0.1 µM, first compound 0.01 µM
[23] = second compound 0.316 µM, first compound 0.00316 µM
[24] = second compound 0.316 µM, first compound 0.01 µM
[25] = second compound 1 µM, first compound 0.00316 µM
[26] = second compound 1 µM, first compound 0.01 µM
[27] = second compound 3.16 µM, first compound 0.00316 µM
[28] = second compound 3.16 µM, first compound 0.01 µM
[29] = second compound 10 µM, first compound 0.00316 µM
[30] = second compound 10 µM, first compound 0.01 µM

Structure (SMILES) | IC50 (second compound 0.1 µM) [nM] | IC50 (second compound 0.316 µM) [nM] | IC50 (second compound 1 µM) [nM] | IC50 (second compound 3.16 µM) [nM] | IC50 (second compound 10 µM) [nM] | viability, T/C [1] [%] | viability, T/C [2] [%] | viability, T/C [3] [%] | viability, T/C [4] [%] | viability, T/C [5] [%] | viability, T/C [6] [%] | viability, T/C [7] [%] | viability, T/C [8] [%] | viability, T/C [9] [%] | viability, T/C [10] [%] | viability, T/C [11] [%] | viability, T/C [13] [%] | viability, T/C [14] [%] | viability, T/C [17] [%] | viability, T/C [18] [%] | further results
NS(=O)(=O)OCC1CC(n2ccc3c(NC4CCc5ccccc54)ncnc32)CC1O (stereo not given) + CC(CO)NC(=O)c1cc(-c2ccc(Cl)cc2)nn(-c2cnn(C)c2)c1=O | 365 | 344 | 376 | 249 | 261 | 78.8 | 78.7 | 52.8 | 20.9 | 86.8 | 73.3 | 54.5 | 19.6 | 77.4 | 72.1 | 55.2 | 87.8 | 67.7 | 93 | 72.9 | viability, T/C (second compound 0.1 µM, first compound 3.16 µM): 3.93%; viability, T/C (second compound 0.1 µM, first compound 10 µM): 1.87%; viability, T/C (second compound 0.316 µM, first compound 3.16 µM): 4.23%; viability, T/C (second compound 0.316 µM, first compound 10 µM): 2.08%; viability, T/C [12]: 21.8%; viability, T/C (second compound 1 µM, first compound 3.16 µM): 4%; viability, T/C (second compound 1 µM, first compound 10 µM): 2.14%; viability, T/C [15]: 47.6%; viability, T/C [16]: 19.1%; viability, T/C (second compound 3.16 µM, first compound 3.16 µM): 3.93%; viability, T/C (second compound 3.16 µM, first compound 10 µM): 2.48%; viability, T/C [19]: 46.5%; viability, T/C [20]: 18.7%; viability, T/C (second compound 10 µM, first compound 3.16 µM): 3.17%; viability, T/C (second compound 10 µM, first compound 10 µM): 2.21%
CC1COCCN1c1cc(-c2ccnn2C)c2ccnc(-c3ccn[nH]3)c2n1 (stereo not given) + Cc1cncc(-c2nc(NCCc3c[nH]c4ccccc34)c3ncn(C(C)C)c3n2)c1 | 192 | 192 | 150 | 49.8 | < 3.16 | 108 | 89.9 | 19.7 | 6.85 | 116 | 88.4 | 20.5 | 7.37 | 100 | 69 | 15 | 65 | 26.9 | 7.76 | 1.45 | viability, T/C [21]: 106%; viability, T/C [22]: 114%; viability, T/C [23]: 119%; viability, T/C [24]: 118%; viability, T/C [25]: 106%; viability, T/C [26]: 104%; viability, T/C [12]: 5.51%; viability, T/C [27]: 74.9%; viability, T/C [28]: 74.9%; viability, T/C [15]: 4.19%; viability, T/C [16]: 2.86%; viability, T/C [29]: 8.14%; viability, T/C [30]: 10.1%; viability, T/C [19]: 0.29%; viability, T/C [20]: 0.46%
Cn1ncnc1C1c2n[nH]c(=O)c3cc(F)cc(c23)NC1c1ccc(F)cc1 (stereo not given) + Cc1cncc(-c2nc(NCCc3c[nH]c4ccccc34)c3ncn(C(C)C)c3n2)c1 | > 100 | > 100 | > 100 | > 100 | < 0.316 | 120 | 115 | – | – | 111 | 116 | – | – | 105 | 119 | – | 72.8 | 80.4 | 17.4 | 21.4 | viability, T/C (second compound 0.1 µM, first compound 0.000316 µM): 122%; viability, T/C (second compound 0.1 µM, first compound 0.001 µM): 120%; viability, T/C [21]: 120%; viability, T/C [22]: 117%; viability, T/C (second compound 0.316 µM, first compound 0.000316 µM): 117%; viability, T/C (second compound 0.316 µM, first compound 0.001 µM): 119%; viability, T/C [23]: 110%; viability, T/C [24]: 116%; viability, T/C (second compound 1 µM, first compound 0.000316 µM): 112%; viability, T/C (second compound 1 µM, first compound 0.001 µM): 111%; viability, T/C [25]: 118%; viability, T/C [26]: 99.7%; viability, T/C (second compound 3.16 µM, first compound 0.000316 µM): 76.6%; viability, T/C (second compound 3.16 µM, first compound 0.001 µM): 77.5%; viability, T/C [27]: 78.7%; viability, T/C [28]: 75.8%; viability, T/C (second compound 10 µM, first compound 0.000316 µM): 19.2%; viability, T/C (second compound 10 µM, first compound 0.001 µM): 19.2%; viability, T/C [29]: 18.9%; viability, T/C [30]: 17.7%
